Measured values published in patent EP4549575A1 (priority 2023, dated 2025).
“Also recorded” adds a separate entry of the source. Where two headings read alike, the source gives them in different places. Square brackets hold non-standard residues; d marks the D form. Ends that are not written are not given here. Peptide text beside a SMILES is read from it. βAla = NCCC(=O)O

What was measured:
[1] = Conformational studies based on circular dichroism; type: physicochemical
Experimental: Conformational studies based on circular dichroism were performed under different conditions, such as: • 10 mM phosphate buffer, pH 7 • MES buffer 10 mM, pH 6 • Buffer acetate 10 mM, pH 5 • Phosphate buffer 10 mM/TFE (1:1) • TFE (trifluoroethanol)
Conformational studies based on circular dichroism were performed under different conditions such as: • 10 mM phosphate buffer, pH7 • Phosphate buffer 10mM/TFE, pH7 (1:1) • TFE (trifluoroethanol)
Conformational studies based on circular dichroism were performed under different conditions, such as: • 10 mM phosphate buffer, pH7 • MES buffer 10 mM, pH6 • Buffer acetate 10 mM, pH5 • Phosphate buffer 10 mM/TFE, pH7 (1:1) • TFE (trifluoroethanol)
Conformational studies based on circular dichroism were performed under different conditions, such as: • 10 mM phosphate buffer, pH7 • 10mM phosphate buffer/TFE (1:1) • TFE (trifluoroethanol)

pronase [2] = assay: Stability towards proteolysis (pronase, LC-MS); type: in vitro ADME, Streptomyces griseus; conditions: peptide 200 µM, protease 5 µg/mL, 37°C, pH 7.5; for stability against proteolysis: 0-2 h
Experimental: The evaluation of the stability of CP20 and Ac-LP20 towards proteolysis was tested at a peptide concentration of 200 µM using pronase (commercially available mixture of proteases isolated from the extracellular fluid of Streptomyces griseus, 2.5 µg/mg). Another peptide was added to this analysis, namely LP20 (without N-terminal acetylation), as it is easier to synthesize and to also assess the influence of N-terminal acetylation on the stability of LP20. Each peptide was tested in the presence of the protease (5 µg/mL) at 37°C in a buffer solution (50 mM Tris, 10 mM CaCl2, 150 mM NaCl, 0.05 % (w/v) Brij 35, pH 7.5) and its stability monitored by liquid chromatography coupled to mass spectrometry (LC-MS) at different time intervals (t=0 min, 10 min, 30 min, 1 h, 2 h). To stop enzyme activity, a small amount of the solution (60 µL) was transferred to an HPLC vial containing 6 µL of a 10% TFA solution at these different time points.

P. infestans [3] = type: cell-based; conditions: for PPI: solid medium, linear vs cyclic peptides (Figure 8); for PPI (%) ± dev. std (Solid medium): peptide 200 µM, PAM agar, mycelium plug, 3-4 days, vs untreated control
[4] = Chemical-physical properties (isoelectric point, net charge, solubility in water); type: physicochemical; conditions: for net charge: at pH 7
Saccharomyces cerevisiae = assay: Specificity: growth in liquid culture (OD620); type: cell-based; conditions: 200 µM; YEPD medium; measured hourly up to 5 h
Experimental: (§1) The specificity of antimicrobial molecules is a key aspect in their development, as good degrees of specificity result in the absence of toxicity to other organisms in the environment such as animals, plants, fungi, bacteria, yeasts, livestock and humans. Therefore, initial assays were carried out to assess the toxicity profiles of CP20 and CP32, similar to those reported in Colombo et al.. For this purpose, the two cyclic peptides were added at a concentration of 200 µM to liquid cultures of the following microorganism species: • (i) Agrobacterium tumefaciens GV3101, (ii) Escherichia coli DH5α and (iii) Saccharomyces cerevisiae. The culture media used were respectively Luria-Bertani (LB) for the bacterial cultures, while Yeast Extract Peptone Dextrose (YEPD) medium was used for S. cerevisiae. Growth was measured hourly (up to 5 h) using a spectrophotometer (OD620).

Escherichia coli DH5α = assay: Specificity: growth in liquid culture (OD620); type: cell-based; conditions: 200 µM; LB medium; measured hourly up to 5 h
Experimental: as §1

P. infestans [5] = conditions: for PGI (%) ± dev. std (Liquid medium): peptide 200 µM, Pea Broth, sporangia, OD620, 72 h, vs untreated control
P. infestans [6] = type: in vivo; conditions: tomato (Solanum lycopersicum, cv. Marmande) leaf discs; co-inoculation with sporangia; 5-7 days; reference concentration 200 µM
P. infestans [7] = type: cell-based; conditions: 10 mg/l; Pea Broth; sporangia; OD620, 72 h; positive control
P. capsici = type: cell-based, Phytophthora capsici Leonian
P. viticola = type: in vivo, Plasmopara viticola (Berk. et Curt.) Berl. and De Toni; conditions: grapevine (Vitis vinifera cv. Pinot noir) leaf discs; mean ± standard deviation vs untreated control; concentration not given
P. infestans [8] = type: cell-based; conditions: 10 mg/l; PAM agar; mycelium plug; 3-4 days; positive control
P. ultimum = type: cell-based, Pythium ultimum var. ultimum Trow; conditions: PDA agar, mycelium; mean ± standard deviation vs untreated control; concentration not given
pronase [9] = assay: pronase (commercially available mixture of proteases isolated from the extracellular fluid of Streptomyces griseus, 2.5 µg/mg) in buffer solution (50 mM Tris, 10 mM CaCl2, 150 mM NaCl, 0.05 % (w/v) Br); conditions: 37°C, up to 2 h
[10] = pH 7-TFE: phosphate buffer 10 mM/TFE (1:1)
[11] = from PGI values at 0.02-200 µM, three-parameter logistic model

In the case of `CSCC[C@H](NC(=O)[C@H](Cc1c[nH]c2ccccc12)NC(=O)[C@H](CCCNC(=N)N)NC(=O)CCNC(C)=O)C(=O)N[C@@H](CC(C)C)C(=O)N[C@H](C(=O)N[C@@H](Cc1ccc(O)cc1)C(=O)N[C@@H](CCCNC(=N)N)C(=O)N[C@@H](CCCNC(=N)N)C(N)=O)C(C)C` [Ac-LP20, Ac-βA -R-W-M-L-V-Y-R-R-CONH2] (Ac-[βAla]RWMLVYRR-NH2), the “Disordered (%)” value ([1]; 10 mM phosphate buffer, pH 7) is reported as 37%, the “Helixes (%)” value ([1]; 10 mM phosphate buffer, pH 7) is reported as 5% and the “Sheets (%)” value ([1]; 10 mM phosphate buffer, pH 7) is reported as 36%. For the same compound, the “Turns (%)” value ([1]; 10 mM phosphate buffer, pH 7) was 22%, the “Disordered (%)” value ([1]; MES buffer 10 mM, pH 6) was 33% and the “Helixes (%)” value ([1]; MES buffer 10 mM, pH 6) was 6%. The “Sheets (%)” value ([1]; MES buffer 10 mM, pH 6) was 40%, the “Turns (%)” value ([1]; MES buffer 10 mM, pH 6) was 21% and the “Disordered (%)” value ([1]; TFE (trifluoroethanol)) was 31%. The “Helixes (%)” value ([1]; TFE (trifluoroethanol)) was 19%, the “Sheets (%)” value ([1]; TFE (trifluoroethanol)) was 27% and the “Turns (%)” value ([1]; TFE (trifluoroethanol)) was 23%. The “Disordered (%)” value ([1]; acetate buffer 10 mM, pH 5) was 36%, the “Helixes (%)” value ([1]; acetate buffer 10 mM, pH 5) was 7% and the “Sheets (%)” value ([1]; acetate buffer 10 mM, pH 5) was 35%. The “Turns (%)” value ([1]; acetate buffer 10 mM, pH 5) was 22%, the “Disordered (%)” value [1, 10] was 29% and the “Helixes (%)” value [1, 10] was 18%. The “Sheets (%)” value [1, 10] was 29%, the “Turns (%)” value [1, 10] was 24% and the “time of total proteolysis of the peptide” value (pronase [2]) was 10 min. For the same compound, the stability against proteolysis (pronase [2]) was “Low stability”, the “PPI (%) mycelium” value (P. infestans [3]; Ala-scan of Ac-LP20 and CP20-Met-Ala, P. infestans mycelium in vitro) was 78.80 ± 4.07% and the isoelectric point [4] was 12.4 pH. The net charge [4] was “+3” and the solubility in water [4] was “good solubility in water”.

In the case of `CC(=O)NCCC(=O)NCC(=O)N[C@@H](CCCNC(=N)N)C(=O)N[C@@H](CC(C)C)C(=O)N[C@@H](CCCNC(=N)N)C(=O)N[C@@H](Cc1c[nH]c2ccccc12)C(=O)N[C@@H](CC(C)C)C(=O)N[C@@H](CCCNC(=N)N)C(=O)N[C@H](C(N)=O)C(C)C` [Ac-LP32, Ac-βA -G-R-L-R-W-L-R-V-CONH2] (Ac-[βAla]GRLRWLRV-NH2), the “Disordered (%)” value ([1]; 10 mM phosphate buffer, pH 7) is reported as 44%, the “Helixes (%)” value ([1]; 10 mM phosphate buffer, pH 7) is reported as 5% and the “Sheets (%)” value ([1]; 10 mM phosphate buffer, pH 7) is reported as 33%. The “Turns (%)” value ([1]; 10 mM phosphate buffer, pH 7) was 18%, the “Disordered (%)” value ([1]; TFE (trifluoroethanol)) was 51% and the “Helixes (%)” value ([1]; TFE (trifluoroethanol)) was 5%. For the same compound, the “Sheets (%)” value ([1]; TFE (trifluoroethanol)) was 30%, the “Turns (%)” value ([1]; TFE (trifluoroethanol)) was 14% and the “Disordered (%)” value [1, 10] was 47%. The “Helixes (%)” value [1, 10] was 5%, the “Sheets (%)” value [1, 10] was 30% and the “Turns (%)” value [1, 10] was 18%. The “time of total proteolysis of the peptide” value (pronase [2]) was 10 min, the stability against proteolysis (pronase [2]) was “low stability” and the “PPI (%) micelio” value (P. infestans [3]; Ala-scan of Ac-LP32, P. infestans mycelium in vitro) was 70.23 ± 3.84%. The isoelectric point [4] was 14 pH, the net charge [4] was “+3” and the solubility in water [4] was “good solubility in water”.

With `CSCC[C@@H]1NC(=O)[C@H](Cc2c[nH]c3ccccc23)NC(=O)[C@H](CCCNC(=N)N)NC(=O)CCNC(=O)[C@H](CCCNC(=N)N)NC(=O)[C@H](CCCNC(=N)N)NC(=O)[C@H](Cc2ccc(O)cc2)NC(=O)[C@H](C(C)C)NC(=O)[C@H](CC(C)C)NC1=O` [CP20, βA-R-W-M-L-V-Y-R-R] (cyclo(LVYRR[βAla]RWM)) the “growth inhibition (OD620)” value (Saccharomyces cerevisiae) was “no growth inhibition”, the “bacterial growth (OD620)” value (Escherichia coli DH5α) was “no alteration in bacterial growth” and the “time after which cleavage was observed in the presence of protease” value (pronase [2]) was 2 h. The stability against proteolysis (pronase [2]) was “good stability against proteolysis”, the EC99 (P. infestans [5]; [11]) was 68.37 µM and the “PGI (%) ± dev. std (Liquid medium)” value (P. infestans [5]) was 86.19 ± 8.66 (b) %. For the same compound, the “PPI (%) ± Std. Dev.” value (P. infestans [3]; 200 µM, P. infestans mycelium, peptidomimetics) was 92.39 ± 2.17 (a) %, the PPI (P. infestans [3]; 200 µM, P. infestans mycelium) was 89.53% and the “PPI (%) ± dev. std (Solid medium)” value (P. infestans [3]) was 88.99 ± 7.56 (b) %. The “Percentage Protection Index for the leaf discs (PPI), reduction in symptoms” value (P. infestans [6]) was 88.64%.

For `CC(C)C[C@@H]1NC(=O)[C@H](CCCNC(=N)N)NC(=O)CNC(=O)CCNC(=O)[C@H](C(C)C)NC(=O)[C@H](CCCNC(=N)N)NC(=O)[C@H](CC(C)C)NC(=O)[C@H](Cc2c[nH]c3ccccc23)NC(=O)[C@H](CCCNC(=N)N)NC1=O` [CP32, βA-G-R-L-R-W-L-R-V] (cyclo(GRLRWLRV[βAla])), the “growth inhibition (OD620)” value (Saccharomyces cerevisiae) was “no growth inhibition”, the “bacterial growth (OD620)” value (Escherichia coli DH5α) was “no alteration in bacterial growth” and the “time of total proteolysis of the peptide” value (pronase [2]) was 30 min. For the same compound, the stability against proteolysis (pronase [2]) was “more stable against proteolysis than its linear analogues”, the EC50 (P. infestans [5]; [11]) was 16 µM and the EC99 (P. infestans [5]; [11]) was 56.18 µM. For the same compound, the “PGI (%) ± dev. std (Liquid medium)” value (P. infestans [5]) was 90.61 ± 10.87 (b) %, the PPI (P. infestans [3]; 200 µM, P. infestans mycelium) was 87.44% and the “PPI (%) ± dev. std (Solid medium)” value (P. infestans [3]) was 87.93 ± 9.47 (b) %. The “Percentage Protection Index for the leaf discs (PPI), reduction in symptoms” value (P. infestans [6]) was 90.03%.

In the case of `C#CCOc1ccc(CCNC(=O)C(OCC#C)c2ccc(Cl)cc2)cc1OC` (stereo not shown) [Mandipropamid, mandipropamid], the “PGI (%) ± dev. std (Liquid medium)” value (P. infestans [7]) is reported as 100.00 ± 0 (a) %, the “P. capsici (PIC - %)” value (P. capsici) is reported as 100 ± 0 (a) % and the “P. viticola (IPP - %)” value (P. viticola) is reported as 100 ± 0 (a) %. For the same compound, the “PPI (%) ± dev. std (Solid medium)” value (P. infestans [8]) was 100.00 ± 0 (a) %.

In the case of `COCC(=O)N(c1c(C)cccc1C)[C@H](C)C(=O)OC` [Metalaxyl-M], the “P. ultimum (IPP - %)” value (P. ultimum) is reported as 100 ± 0 (a) %.

With [βAla]GRLRWLRV [CP32] the cleaved bond (pronase [9]) was “βAla-Gly, first_seen, After mixing protease with peptide solution; also recorded: Leu7-Arg8, first_seen, After mixing protease with peptide solution; also recorded: Arg8-Val; also recorded: Leu4-Arg5, 10 minutes; also recorded: Arg5-Trp, 10 minutes; also recorded: Trp-Leu7, 10 minutes”.

With [βAla]GRLRWLRV [LP32] the cleaved bond (pronase [9]) was “Trp-Leu7, first_seen, immediately, after mixing protease with peptide solution; also recorded: Leu4-Arg5, 10 min; also recorded: Arg5-Trp, 10 min; also recorded: Leu7-Arg8, 10 min; also recorded: Arg8-Val, 10 min”.

With [βAla]RWMLVYRR [CP20] the cleaved bond (pronase [9]) was “Arg8-Arg9, 2 hours; also recorded: Met4-Leu, 2 hours”.

With [βAla]RWMLVYRR [LP20] the cleaved bond (pronase [9]) was “Met4-Leu, first_seen, t0; also recorded: Arg2-Trp3, 10 min; also recorded: Trp3-Met4, 10 min”.
